Results reported in patent US20240083857A1, “2-Methyl-Quinazolines” (Bayer Pharma Aktiengesellschaft, priority 2017, published 2024).
pIC50: −log10 of the molar value.

Key:
[1] = target: human SOS1 (loading of human K-Ras^G12C-GDP with fluorescent GTP-analog) (Homo sapiens, UniProt Q07889); test: Biochemical assay 3: K-Ras^G12C activation assay by hSOS1 (HTRF); details: no GTP; for inhibition at 20 µM: read-out: Assay 3 (KRAS-Activation by SOS no GTP) activity expressed as % inhibition at 20 μM; for pIC50: read-out: Assay 3 (KRAS-Activation by SOS no GTP) activity expressed as IC50
[2] = target: K-Ras^G12C : hSOS1 interaction (Homo sapiens, UniProt Q07889); test: Biochemical assay 1: K-Ras^G12C interaction assay with hSOS1 (HTRF); assay type: binding; details: read-out: Assay 1 (KRAS-SOS Interaction) activity expressed as IC50

Row | SMILES | inhibition at 20 µM [1] [%] | pIC50 [2] | pIC50 [1]
1 | COc1cc2nc(C)nc(N[C@H](C)c3ccc(C4=CCN(C)CC4)cc3)c2cc1OC [Example 201, 6,7-dimethoxy-2-methyl-N-{(1R)-1-[4-(1-methyl-1,2,3,6-tetrahydropyridin-4-yl)phenyl]ethyl}quinazolin-4-amine] | 50 | 4.71 | 
2 | COc1cc2nc(C)nc(N[C@H](C)c3cccc(C4=CCN(C)CC4)c3)c2cc1OC [Example 202, 6,7-dimethoxy-2-methyl-N-{(1R)-1-[3-(1-methyl-1,2,3,6-tetrahydropyridin-4-yl)phenyl]ethyl}quinazolin-4-amine] |  | 5.85 | 5.27
3 | C=C(C)c1ccc([C@@H](C)Nc2nc(C)nc3cc(OC)c(OC)cc23)cc1 [Example 203, 6,7-dimethoxy-2-methyl-N-{(1R)-1-[4-(prop-1-en-2-yl)phenyl]ethyl}quinazolin-4-amine] |  | 5.86 | 5.47
4 | COc1cc2nc(C)nc(N[C@H](C)c3cccc(C4CC4)c3)c2cc1OC [Example 204, N-[(1R)-1-(3-cyclopropylphenyl)ethyl]-6,7-dimethoxy-2-methylquinazolin-4-amine] |  | 6.64 | 6.19
5 | COc1cc2nc(C)nc(NC(C)c3cccc4sccc34)c2cc1OC (centres unmarked) [Example 205, N-[1-(1-benzothiophen-4-yl)ethyl]-6,7-dimethoxy-2-methylquinazolin-4-amine] |  | 7.13 | 6.90
6 | COc1cc2nc(C)nc(N[C@H](C)c3ccccc3)c2cc1OC [Example 206, 6,7-dimethoxy-2-methyl-N-[(1R)-1-phenylethyl]quinazolin-4-amine] |  | 6.32 | 5.76
7 | COc1cc2nc(C)nc(NC(C)c3cccs3)c2cc1OC (centres unmarked) [Example 207, 6,7-dimethoxy-2-methyl-N-[1-(thiophen-2-yl)ethyl]quinazolin-4-amine] |  | 5.56 | 4.91
8 | COc1cc2nc(C)nc(NC(C)c3ccc(-c4ccccc4CN4CCC(O)C4)s3)c2cc1OC (centres unmarked) [Example 210, 1-[2-(5-{1-[(6,7-dimethoxy-2-methylquinazolin-4-yl)amino]ethyl}thiophen-2-yl)benzyl]pyrrolidin-3-ol] |  | 7.41 | 7.00
9 | COc1cc2nc(C)nc(NC(C)c3ccc(-c4ccccc4CN4CC[C@H](F)C4)s3)c2cc1OC (stereo partly drawn) [Example 211, N-{1-[5-(2-{[(3S)-3-fluoropyrrolidin-1-yl]methyl}phenyl)thiophen-2-yl]ethyl}-6,7-dimethoxy-2-methylquinazolin-4-amine] |  | 6.88 | 6.63
10 | COc1cc2nc(C)nc(NC(C)c3ccc(-c4ccccc4)o3)c2cc1OC (centres unmarked) [Example 213, 6,7-dimethoxy-2-methyl-N-[1-(5-phenylfuran-2-yl)ethyl]quinazolin-4-amine] | 42 | 5.17 | 
11 | COc1cc2nc(C)nc(NC(C)c3cc(Br)cc4c3OCC4)c2cc1OC (centres unmarked) [Example 214, N-[1-(5-bromo-2,3-dihydro-1-benzofuran-7-yl)ethyl]-6,7-dimethoxy-2-methylquinazolin-4-amine] |  | 5.48 | 4.87
12 | COc1cc2nc(C)nc(NC(C)c3cccc(Oc4ccccc4)c3)c2cc1OC (centres unmarked) [Example 215, 6,7-dimethoxy-2-methyl-N-[1-(3-phenoxyphenyl)ethyl]quinazolin-4-amine] |  | 6.04 | 5.53
13 | COc1cc2nc(C)nc(NC(C)c3cccc(-c4nn[nH]n4)c3)c2cc1OC (centres unmarked) [Example 216, 6,7-dimethoxy-2-methyl-N-{1-[3-(2H-tetrazol-5-yl)phenyl]ethyl}quinazolin-4-amine] |  | 5.18 | 4.79
14 | COc1cc2nc(C)nc(NC(C)c3cccc4cccnc34)c2cc1OC (centres unmarked) [Example 217, 6,7-dimethoxy-2-methyl-N-[1-(quinolin-8-yl)ethyl]quinazolin-4-amine] | 45 | 5.06 | 
15 | COc1cc2nc(C)nc(NC(C)c3ccc(-c4cnn(CCO)c4)s3)c2cc1OC (centres unmarked) [Example 218, 2-[4-(5-{1-[(6,7-dimethoxy-2-methylquinazolin-4-yl)amino]ethyl}thiophen-2-yl)-1H-pyrazol-1-yl]ethanol] |  | 5.71 | 5.42
16 | COc1cc2nc(C)nc(NC(C)c3ccc(-c4cnc5n4CCC5)s3)c2cc1OC (centres unmarked) [Example 219, N-{1-[5-(6,7-dihydro-5H-pyrrolo[1,2-a]imidazol-3-yl)thiophen-2-yl]ethyl}-6,7-dimethoxy-2-methylquinazolin-4-amine] |  | 6.38 | 6.04
17 | COc1cc2nc(C)nc(NC(C)c3ccc(-c4cnn(CCN5CCCC5)c4)s3)c2cc1OC (centres unmarked) [Example 220, 6,7-dimethoxy-2-methyl-N-[1-(5-{1-[2-(pyrrolidin-1-yl)ethyl]-1H-pyrazol-4-yl}thiophen-2-yl)ethyl]quinazolin-4-amine] |  | 6.42 | 6.00
18 | COc1cc2nc(C)nc(NC(C)c3ccc(-c4cnn(C5CCCC5)c4)s3)c2cc1OC (centres unmarked) [Example 221, N-{1-[5-(1-cyclopentyl-1H-pyrazol-4-yl)thiophen-2-yl]ethyl}-6,7-dimethoxy-2-methylquinazolin-4-amine] |  | 5.51 | 5.32
19 | COc1cc2nc(C)nc(NC(C)c3ccc(-c4cc[nH]n4)s3)c2cc1OC (centres unmarked) [Example 222, 6,7-dimethoxy-2-methyl-N-{1-[5-(1H-pyrazol-3-yl)thiophen-2-yl]ethyl}quinazolin-4-amine] |  | 5.41 | 4.87
20 | COc1cc2nc(C)nc(NC(C)c3ccc(-c4ccccc4CN4CCC(F)(F)C4)s3)c2cc1OC (centres unmarked) [Example 223, N-[1-(5-{2-[(3,3-difluoropyrrolidin-1-yl)methyl]phenyl}thiophen-2-yl)ethyl]-6,7-dimethoxy-2-methylquinazolin-4-amine] |  | 5.68 | 5.14
21 | COc1cc2nc(C)nc(NC(C)c3ccc4nsnc4c3)c2cc1OC (centres unmarked) [Example 229, N-[1-(2,1,3-benzothiadiazol-5-yl)ethyl]-6,7-dimethoxy-2-methylquinazolin-4-amine] | 29 | 5.16 | 
22 | CCOc1ccccc1-c1ccc(C(C)Nc2nc(C)nc3cc(OC)c(OC)cc23)s1 (centres unmarked) [Example 232, N-{1-[5-(2-ethoxyphenyl)thiophen-2-yl]ethyl}-6,7-dimethoxy-2-methylquinazolin-4-amine] |  | 5.05 | 5.39
23 | COc1cc2nc(C)nc(NC(C)c3ccc(-c4ccc(F)c5ccccc45)s3)c2cc1OC (centres unmarked) [Example 233, N-{1-[5-(4-fluoronaphthalen-1-yl)thiophen-2-yl]ethyl}-6,7-dimethoxy-2-methylquinazolin-4-amine] |  | 4.98 | 4.79
24 | COc1cc2nc(C)nc(NC(C)c3ccc(-c4ccc(F)cc4CN)s3)c2cc1OC (centres unmarked) [Example 234, N-[1-{5-[2-(aminomethyl)-4-fluorophenyl]thiophen-2-yl}ethyl]-6,7-dimethoxy-2-methylquinazolin-4-amine] |  | 7.12 | 7.04
25 | COc1cc2nc(C)nc(NC(C)c3ccc(C4=CCOCC4)s3)c2cc1OC (centres unmarked) [Example 235, N-{1-[5-(3,6-dihydro-2H-pyran-4-yl)thiophen-2-yl]ethyl}-6,7-dimethoxy-2-methylquinazolin-4-amine] |  | 5.26 | 5.28
